# PMC4842925, “Aristolochic acid, a plant extract used in the treatment of pain and linked to Balkan endemic nephropathy, is a regulator of K2P channels” (British Journal of Pharmacology, 2016)
# Positions count from the first letter of the chain named.
# How the values were obtained:
# Experiment in all cases: whole-cell patch clamp, tsA201 cells
# Type in all cases: cell-based
# hTRAAK (K2P4.1) = target: T1, hTRAAK (K2P4.1) (Homo sapiens, UniProt Q9NYG8); conditions: authors: little effect; difference current between -40 and -80 mV; pH 7.4; 2.5 mM external K; room temperature
# T1 construct: gene KCNK4; isoform 2 in pcDNA3.1, transiently expressed in tsA201 cells; homodimer
# T1 sequence (Q9NYG8 1-419 isoform Q9NYG8-2): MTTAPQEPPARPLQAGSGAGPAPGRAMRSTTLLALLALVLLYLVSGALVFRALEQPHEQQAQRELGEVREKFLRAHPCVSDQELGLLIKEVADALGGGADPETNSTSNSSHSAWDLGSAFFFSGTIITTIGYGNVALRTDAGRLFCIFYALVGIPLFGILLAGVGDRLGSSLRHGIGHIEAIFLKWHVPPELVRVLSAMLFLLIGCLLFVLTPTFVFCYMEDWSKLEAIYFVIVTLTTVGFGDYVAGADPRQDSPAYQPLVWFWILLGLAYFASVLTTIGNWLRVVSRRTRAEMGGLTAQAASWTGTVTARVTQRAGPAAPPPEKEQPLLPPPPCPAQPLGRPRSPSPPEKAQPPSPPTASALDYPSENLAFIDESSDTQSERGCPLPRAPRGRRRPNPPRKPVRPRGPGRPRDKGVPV
# hTASK-2 (K2P5.1) [1] = target: T2, hTASK-2 (K2P5.1) (Homo sapiens, UniProt O95279); conditions: activation; no effect at 100 μM; pH 7.4; 2.5 mM external K; room temperature
# T2 construct: gene KCNK5; full-length channel in pcDNA3.1, transiently expressed in tsA201 cells; functional dimer
# T2 sequence (O95279 1-499): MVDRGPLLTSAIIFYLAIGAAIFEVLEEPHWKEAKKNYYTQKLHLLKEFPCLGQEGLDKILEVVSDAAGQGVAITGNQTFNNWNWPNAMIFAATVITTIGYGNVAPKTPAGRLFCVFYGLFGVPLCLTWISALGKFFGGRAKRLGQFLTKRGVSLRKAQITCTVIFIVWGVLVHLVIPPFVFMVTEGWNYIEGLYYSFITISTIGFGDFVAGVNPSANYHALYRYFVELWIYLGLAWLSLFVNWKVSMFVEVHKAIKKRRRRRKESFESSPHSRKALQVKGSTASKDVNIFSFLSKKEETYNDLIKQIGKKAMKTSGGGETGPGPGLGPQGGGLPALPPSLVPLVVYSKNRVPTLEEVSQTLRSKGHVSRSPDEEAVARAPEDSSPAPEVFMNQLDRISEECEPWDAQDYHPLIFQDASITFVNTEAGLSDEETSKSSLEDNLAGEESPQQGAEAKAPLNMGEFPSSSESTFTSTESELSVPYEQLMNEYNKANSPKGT
# hTRESK (K2P18.1) [2] = target: T3, hTRESK (K2P18.1) (Homo sapiens, UniProt Q7Z418, S252E/S264E)
# T3 construct: gene KCNK18; full-length channel in pcDNA3.1, transiently expressed in tsA201 cells; homodimer
# T3 sequence (Q7Z418 1-384 S252E/S264E): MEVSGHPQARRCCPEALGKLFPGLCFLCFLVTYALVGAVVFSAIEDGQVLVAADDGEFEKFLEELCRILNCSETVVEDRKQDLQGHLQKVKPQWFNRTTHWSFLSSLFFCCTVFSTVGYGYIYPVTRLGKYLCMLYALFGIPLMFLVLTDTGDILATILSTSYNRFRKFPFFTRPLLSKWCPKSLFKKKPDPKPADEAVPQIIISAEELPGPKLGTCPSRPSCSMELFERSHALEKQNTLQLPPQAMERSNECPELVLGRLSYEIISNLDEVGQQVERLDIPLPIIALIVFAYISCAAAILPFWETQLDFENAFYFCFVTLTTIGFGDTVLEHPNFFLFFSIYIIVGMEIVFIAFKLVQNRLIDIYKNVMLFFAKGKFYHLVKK
# hTRESK (K2P18.1) [3] = target: T4, hTRESK (K2P18.1) (Homo sapiens, UniProt Q7Z418, S252A/S264A)
# T4 construct: gene KCNK18; full-length channel in pcDNA3.1, transiently expressed in tsA201 cells; homodimer
# T4 sequence (Q7Z418 1-384 S252A/S264A): T3 sequence (Q7Z418 1-384 S252E/S264E) with E252A, E264A
# hTRESK (K2P18.1) [4] = target: T5, hTRESK (K2P18.1) (Homo sapiens, UniProt Q7Z418)
# T5 construct: gene KCNK18; full-length channel in pcDNA3.1, transiently expressed in tsA201 cells; homodimer
# T5 sequence (Q7Z418 1-384): T3 sequence (Q7Z418 1-384 S252E/S264E) with E252S, E264S
# hTRESK (K2P18.1) [5] = target: T6, hTRESK (K2P18.1) (Homo sapiens, UniProt Q7Z418, F145A/F352A)
# T6 construct: gene KCNK18; full-length channel in pcDNA3.1, transiently expressed in tsA201 cells; homodimer
# T6 sequence (Q7Z418 1-384 F145A/F352A): T3 sequence (Q7Z418 1-384 S252E/S264E) with F145A, E252S, E264S, F352A
# hTREK-2 (K2P10.1) = target: T7, hTREK-2 (K2P10.1) (Homo sapiens, UniProt P57789); conditions: activation; difference current between -40 and -80 mV; pH 7.4; 2.5 mM external K; room temperature
# T7 construct: gene KCNK10; full-length channel in pcDNA3.1, transiently expressed in tsA201 cells; homodimer
# T7 sequence (P57789 1-538): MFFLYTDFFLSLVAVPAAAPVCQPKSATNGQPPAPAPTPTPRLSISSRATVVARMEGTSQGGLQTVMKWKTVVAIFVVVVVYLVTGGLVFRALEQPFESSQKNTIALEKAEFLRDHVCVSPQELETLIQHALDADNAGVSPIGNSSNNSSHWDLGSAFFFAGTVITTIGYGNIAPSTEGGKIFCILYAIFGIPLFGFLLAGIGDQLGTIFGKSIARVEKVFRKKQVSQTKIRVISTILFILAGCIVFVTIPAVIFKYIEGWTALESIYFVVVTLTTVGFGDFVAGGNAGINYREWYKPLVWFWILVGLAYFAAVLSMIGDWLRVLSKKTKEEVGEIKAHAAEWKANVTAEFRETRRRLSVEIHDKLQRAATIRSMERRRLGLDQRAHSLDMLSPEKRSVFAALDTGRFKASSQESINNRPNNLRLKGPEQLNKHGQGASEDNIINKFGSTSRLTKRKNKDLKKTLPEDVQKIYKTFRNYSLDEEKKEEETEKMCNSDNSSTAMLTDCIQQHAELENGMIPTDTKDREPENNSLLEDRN
# hTASK-2 (K2P5.1) [6] = target: T2, hTASK-2 (K2P5.1); conditions: activation; pH 7.4; 2.5 mM external K; room temperature
# hTASK-2 (K2P5.1) [7] = target: T8, hTASK-2 (K2P5.1) (Homo sapiens, UniProt O95279, T108P)
# T8 construct: gene KCNK5; full-length channel in pcDNA3.1, transiently expressed in tsA201 cells; functional dimer
# T8 sequence (O95279 1-499 T108P): T2 sequence (O95279 1-499) with T108P
Compound,% enhancement at 100 μM (hTRAAK (K2P4.1)) [%],% enhancement at 300 μM (hTASK-2 (K2P5.1) [1]) [%],inhibition at 100 µM (hTRESK (K2P18.1) [2]) [%],inhibition at 100 µM (hTRESK (K2P18.1) [3]) [%],IC50 (hTRESK (K2P18.1) [4]) [µM],inhibition at 100 µM (hTRESK (K2P18.1) [5]) [%],% enhancement at 100 μM (hTREK-2 (K2P10.1)) [%],% enhancement at 100 μM (hTASK-2 (K2P5.1) [6]) [%],inhibition at 100 µM (hTASK-2 (K2P5.1) [7]) [%]
COc1cccc2c1cc([N+](=O)[O-])c1c(C(=O)O)cc3c(c12)OCO3 [Aristolochic acid I],8 ± 5,21 ± 13,73 ± 5,80 ± 2,13 ± 2,0,44 ± 11,,
O=C(O)c1ccccc1Nc1cccc(C(F)(F)F)c1 [Flufenamic acid],,,,,,,,80 ± 31,15 ± 14
